{"source": "patent US11896649B2", "about": "“Methods and pharmaceutical compositions for the treatment of post-operative cognitive dysfunction” (INSERM (INSTITUT NATIONAL DE LA SANTE ET DE LA RECHERCHE …, priority 2016, dated 2024)", "key": {"IL-6 mRNA": {"tested_on": "IL-6 mRNA", "settings": "fractured mice, tissues collected 72 hours after fracture; FIG. 3b", "method": "(§1) All mice were anaesthetized with 2-3% sevoflurane. Adequate anesthesia was ascertained by an absent pedal withdrawal reflex after hard pinching of the toe. Closed tibial fracture was performed as previously described (Minville et al 2008). Briefly, after antiseptic preparation of the right paw with povidone-iodine, a unilateral closed fracture was produced in the right tibia using a specially designed fracture apparatus (blunt guillotine). For the intramedullary pinning using a sterile technique, a hole was made above the tibial tuberosity per-cutaneously using a 27 G needle (BD Microlance—27G ¾L 19 mm). Then, the needle was directed straight into the medullary canal. By rotating the needle, the canal was reamed to 5 mm up to the ankle joint. The end of the needle was cut as short as possible so that the skin could roll over and covers it. No suture was performed. The mouse was then placed with the leg on the anvil in order to line up the blunt guillotine with the proximal third of the tibia. A 300 g weight was decreased from a height of 9 to 10 cm, fracturing the tibia shaft.\n(§2) Apelin administration (ip, 0.5 umol/kg, Bachem) has been performed 1 hour before fracture and daily during the 15 consecutive days."}, "TNFa mRNA": {"tested_on": "TNFa mRNA", "settings": "fractured mice, tissues collected 72 hours after fracture; FIG. 3a", "method": "as §1, §2"}, "fractured mice [1]": {"tested_on": "fractured mice", "method": "as §1, §2"}, "fractured mice [2]": {"tested_on": "fractured mice", "settings": "20 month old mice, i.p. apelin 0.5 nmol/kg before and during 3 days after the fracture, tested after 3 days; FIG. 4", "description": "FIG. 4: Percentage of freezing in aged mice. Twenty month old male C57B16/j mice were fractured with (fracture apelin) or without (fracture PBS) an i.p treatment of apelin (0.5 nmol/kg) before and during 3 days after the fracture. After 3 days, animal hippocampal memory was tested by fear conditioning test. N=6 to 10, *p<0.05 compared to control.\nTo test the long-term memory and learning abilities, a fitness test to fear (Fear Conditioning Test) was used.\nDuring the learning session, this test combines a painful and anxiety-producing event (2 short electrical discharges 0.3 mA 2 s on the legs) in an environmental context (floor cage with metal grills, washed several times a day with an alcoholic solution), visual (compound walls of black and white stripes, and white light patterns on the walls of the room) and sound (each discharge is preceded by a 80 dB sound 20 seconds). The learning phase lasted 4 minutes 25 seconds.\nIn the context of test sessions, conducted in the 3rd postoperative day, the animal was reintroduced in the same cage for 4 minutes. The context was the same but without sound stimulation or pain stimulus. […] Operator who ignored the treatment received by each animal evaluated the freezing time of each animal. […]"}}, "data": [{"substance": "apelin", "values": [{"measurement": "Hippocampus IL-6 mRNA expression", "setting": "IL-6 mRNA", "value": "avoid IL-6 increase"}, {"measurement": "Hematoma TNFa mRNA expression", "setting": "TNFa mRNA", "value": "strong decreased"}, {"measurement": "Pain and nociception measured by Von Frey technique", "setting": "fractured mice [1]; apelin ip 0.5 umol/kg 1 hour before fracture and daily, tested at day 1, 5 and 15 after fracture, FIG. 1a", "value": "significantly decreased"}, {"measurement": "Pain and nociception measured by Hargreave's technique", "setting": "fractured mice [1]; apelin ip 0.5 umol/kg 1 hour before fracture and daily, tested at day 1, 5 and 15 after fracture, FIG. 1b", "value": "significantly decreased"}, {"measurement": "Freezing rate in non-operated mice", "setting": "fractured mice [1]; non-operated mice treated by apelin, FIG. 2", "value": "did not display change"}, {"measurement": "Freezing rate in operated mice, compared to operated mice receiving saline injections", "setting": "fractured mice [1]; operated mice, daily injection of apelin, day 3 after fracture, FIG. 2", "value": "increased"}, {"measurement": "Hippocampal memory (percentage of freezing) in aged mice after fracture", "setting": "fractured mice [2]", "value": "do not exhibit hippocampal memory failure"}]}]}
